We go through one molecule from PMC10694602, “Binding of perilipin 3 to membranes containing diacylglycerol is mediated by conserved residues within its PAT domain” (The Journal of Biological Chemistry, 2023).

Changes are numbered by the printed parent chain.

For assay [1], the target named is T1, PLIN3 (Homo sapiens, UniProt O60664).
T1 construct: Plasmids containing human full-length PLIN3 or fragments thereof were obtained by PCR amplification; made in house; host or cells: Escherichia coli BL21 (DE3) or NiCo21 (DE3)
T1 sequence (O60664 1-434): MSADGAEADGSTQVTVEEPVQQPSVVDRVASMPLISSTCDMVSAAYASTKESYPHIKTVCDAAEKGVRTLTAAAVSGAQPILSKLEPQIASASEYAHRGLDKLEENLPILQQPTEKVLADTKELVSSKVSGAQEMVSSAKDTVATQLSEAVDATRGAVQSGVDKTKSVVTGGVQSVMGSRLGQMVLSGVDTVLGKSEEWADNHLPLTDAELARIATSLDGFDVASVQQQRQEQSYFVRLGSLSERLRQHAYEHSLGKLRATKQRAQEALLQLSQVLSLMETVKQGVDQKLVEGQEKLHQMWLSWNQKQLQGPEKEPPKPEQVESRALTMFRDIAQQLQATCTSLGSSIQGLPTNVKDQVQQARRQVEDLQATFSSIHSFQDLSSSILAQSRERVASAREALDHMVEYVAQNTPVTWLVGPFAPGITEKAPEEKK
As to the kind of experiment: Microscale thermophoresis (MST) binding of lipids, liposomes or ALDs to full-length WT PLIN3. The following applies: short chain lipid as free ligand; Fig. 1I, Fig. 4C; read-out: KD. From the text: To corroborate these findings, we analyzed binding of PLIN3 to liposomes using microscale thermophoresis (MST), an immobilization-free technology for measuring biomolecular interactions based on the diffusion of a fluorescently labeled protein along a microscopic temperature gradient. In this assay, the free protein diffuses faster than the one which has bound to a ligand. Ligands can range from small ions to low molecular weight compounds, liposomes, or even viruses ([24], [25], [26], [27], [28]). Variations in fluorescence intensity are then plotted against the ligand concentrations to determine a binding affinity. […] To determine the optimal DAG concentrations for PLIN3 binding, we varied the DAG concentrations in the ER-liposomes between 0 to 20 mol%.
(§1) Binding of purified PLIN3 protein and PLIN3 domains to liposomes, ALDs, or short chain lipids was determined by MST using a Monolith NT.115 system (Nanotemper Technologies). Proteins were labeled with a RED-tris-NTA His tag protein-labeling reagent following the manufacturer’s instructions (Nanotemper Technologies). Labeled proteins were added to a serial dilution of unlabeled lipids, liposomes, or ALDs, and the mixtures were loaded into MST standard capillaries to assess binding affinities. The dissociation constant was obtained by plotting fluorescence intensities of the protein–lipid complex against the concentrations of the unlabeled lipids, liposomes, or ALDs. Experiments were performed in triplicates and data were fitted using the KD Model of the MO.Affinity Analysis software (https://nanotempertech.com/, Nanotemper Technologies).
(Microscale thermophoresis detects binding through changes in fluorescence in a small temperature gradient.)

Assay [2] addresses T2, PLIN3 - E86A I89G S93A (Homo sapiens, UniProt O60664, E86A/I89G/S93A).
T2 construct: Plasmids containing human full-length PLIN3 or fragments thereof were obtained by PCR amplification; made in house; host or cells: Escherichia coli BL21 (DE3) or NiCo21 (DE3)
T2 sequence (O60664 1-434 E86A/I89G/S93A): T1 sequence (O60664 1-434) with E86A, I89G, S93A
As to the kind of experiment: MST binding to the PLIN3 triple mutant. Particulars: short chain lipid as free ligand; n.d. = not detected; Fig. 4C.
Description: (§2) To validate this predicted mode of DAG binding by the PAT domain, we generated mutant versions of PLIN3 and assessed their impact on DAG binding by MST. First, we tested whether the simultaneous substitution of the five residues, Q22, S24, E86A, I89G, and S93A, would impact either binding of short chain DAG or that of liposomes containing low concentrations of DAG. […] To assess the impact of these residues in more detail, we first tested mutations in the two serine residues S24A and S93A. […] To confirm the importance of the glutamic acid residue at position 86 for binding of DAG, we also generated an E86A point mutant version.
as §1, with “Experiments were performed in triplicates and data were fitted using the KD Model of the MO.Affinity Analysis software (https://nanotempertech.com/, Nanotemper Technologies).” left out

For assay [3], the target named is T3, PLIN3 - E86A (Homo sapiens, UniProt O60664, E86A).
T3 construct: Plasmids containing human full-length PLIN3 or fragments thereof were obtained by PCR amplification; made in house; host or cells: Escherichia coli BL21 (DE3) or NiCo21 (DE3)
T3 sequence (O60664 1-434 E86A): T1 sequence (O60664 1-434) with E86A
As to the kind of experiment: MST binding to the PLIN3 point mutant. Particulars: short chain lipid as free ligand.
Description: as §2
as §1, with “Experiments were performed in triplicates and data were fitted using the KD Model of the MO.Affinity Analysis software (https://nanotempertech.com/, Nanotemper Technologies).” left out

Assay [4] concerns the target T4, PLIN3 - S24A S93A (Homo sapiens, UniProt O60664, S24A/S93A).
T4 construct: Plasmids containing human full-length PLIN3 or fragments thereof were obtained by PCR amplification; made in house; host or cells: Escherichia coli BL21 (DE3) or NiCo21 (DE3)
T4 sequence (O60664 1-434 S24A/S93A): T1 sequence (O60664 1-434) with S24A, S93A
As to the kind of experiment: MST binding to the PLIN3 serine double mutant. Particulars: short chain lipid as free ligand.
Description: as §2
as §1, with “Experiments were performed in triplicates and data were fitted using the KD Model of the MO.Affinity Analysis software (https://nanotempertech.com/, Nanotemper Technologies).” left out

The term Kd denotes the equilibrium constant for the complex coming apart.

For `CCCCCCCC(=O)OC[C@H](CO)OC(=O)CCCCCCC` [8:0 DAG, 1,2-dioctanoyl-sn-glycerol], the results for the Kd in assay [1], in assay [3] (Fig. 4C) and in assay [4] (Fig. S1) were 100 nM, 87.3 µM and 2090 nM, respectively. Also, in assay [2], the KD entry was “failed to bind”. The “fold less efficient binding than WT PLIN3” value in assay [3] is reported as 873 fold. Further, the “fold decreased affinity versus WT PLIN3” value in assay [4] is given as 20.9 fold.
